Patent US10851053B2, “Chemical compounds” (GlaxoSmithKline Intellectual Property Development Limited, priority 2016, dated 2020)
Values joined by “and” are separate entries in the source; they are usually repeats but may differ in a detail not shown here. Identical values can stand only once.

Test system: ATF4 translation (ATF4 pathway), SH-SY5Y-ATF4-NanoLuc cells
Assay: ATF4 cell based assay (ATF4 5'-UTR NanoLuc luciferase reporter, Thapsigargin induced cellular stress)
Settings: SH-SY5Y-ATF4-NanoLuc cells challenged with Thapsigargin for 14-18 hours; average of two or more experimental runs; read-out: average ATF4 pathway inhibitory activity (IC50)
Description: The ATF4 reporter assay measures the effect of Thapsigargin induced cellular stress on ATF4 expression. For this reporter assay, a stable cell line was created by transfecting SH-SY5Y cells with a plasmid containing the NanoLuc® luciferase gene fused to the 5′-UTR of ATF4, under the control of the CMV promoter. The ATF4 5′-UTR contains two open reading frames which mediate the cellular stress-dependent translation of the reporter gene. Clones stably expressing the reporter construct were isolated and selected based on the luminescence response to thapsigargin and inhibition of this signal by test compounds. Briefly, SH-SY5Y-ATF4-NanoLuc cells were challenged with Thapsigargin for 14-18 hours to determine the stress effect with or without test compounds.
Cells were propagated in growth media consisting of 90% DMEM F12 (InVitrogen #11320-033), 10% Fetal Bovine Serum (Gibco #10438-026), 5 mM Glutamax (Gibco #35050-061), 5 mM Hepes, (Gibco #15630-080), and 0.5 mg/ml Geneticin (Gibco #10131-027). Cells were prepared for the assay by removing all media from cells, washing the plated cells with phosphate buffered saline, and detached by adding a solution comprised of 10% Tryple express solution (InVitrogen12604-021) and 90% enzyme-free cell dissociation buffer HANKS base (Gibco 13150-016). The trypsin was deactivated by adding assay media comprised of 90% phenol-red free DMEM F12 (InVitrogen, 11039), 10% Fetal Bovine Serum (Gibco #10438-026), (5 mM Glutamax (Gibco #35050-061), 5 mM Hepes, (Gibco #15630-080), and 0.5 mg/ml Geneticin (Gibco #10131-027). Suspended cells were spun down at 300 g for 5 min, the supernatant was removed and the cell pellet was suspended in warm media (30-37° C.) comprised as above at (1e6 cell/ml).
Assay plates were prepared by adding 250 nL of compound stock solution in 100% DMSO to each well, followed by dispensing 20 microliters/well cell suspension to deliver 15-20 k cell/well. Cells were incubated for 1 hour at 37° C. Then, 5 μL of 1.5 μM or 1 μM of Thapsigargin (final concentration: 200-300 nM) was added to each well of cells. Assay plates containing cells were incubated for 14-18 hours at 37° C.
The measurement of luciferase produced by the ATF4 constructs was measured as follows. Aliquots of the Nano-Glo reagent (Nano-Glo® Luciferase Assay Substrate, Promega, N113, Nano-Glo® Luciferase Assay Buffer, Promega, N112 (parts of Nano-Glo® Luciferase Assay System, N1150) were brought to room temperature, the substrate and buffer were mixed according to manufacturer's instructions. The cell plates were equilibrated to room temperature. 25 microliters/well of the mixed Nano-Glo reagent were dispensed into assay wells and pulse spun to settle contents and the plate was sealed with film. The plates were incubated at room temperature for 1 hour before detecting luminescence on an Envision plate reader.
Compounds of the invention are tested for activity against ATF4 translation in the above assay.

Row | SMILES | IC50
1 | O=C(COc1ccc(Cl)cc1)NOC1CCN(C(=O)CCOc2ccc(Cl)cc2)C1 (centres unmarked) [Example 35, 2-(4-chlorophenoxy)-N-((1-(3-(4-chlorophenoxy)propanoyl)pyrrolidin-3-yl)oxy)acetamide] | < 100 nM
2 | O=C(COc1ccc(Cl)cc1)NC[C@H]1CCN(C(=O)COc2ccc(Cl)cc2)C1 [Example 30] | 252 nM
3 | O=C(COc1ccc(Cl)cc1)NCC1CCN(CCCOc2ccc(Cl)cc2F)C1 (centres unmarked) [Example 62, N-((1-(3-(4-chloro-2-fluorophenoxy)propyl)pyrrolidin-3-yl)methyl)-2-(4-chlorophenoxy)acetamide] | < 100 nM
4 | O=C(COc1ccc(Cl)cc1)NCC1CCN(C(=O)C2CCc3cc(Cl)ccc3O2)C1 (centres unmarked) [Example 8, N-((1-(6-chlorochroman-2-carbonyl)pyrrolidin-3-yl)methyl)-2-(4-chlorophenoxy)acetamide] | < 100 nM
5 | O=C(COc1ccc(Cl)cc1)NCC1CCN(CCCOc2ccc(Cl)cc2)C1=O (centres unmarked) [Example 75, 2-(4-chlorophenoxy)-N-((1-(3-(4-chlorophenoxy)propyl)-2-oxopyrrolidin-3-yl)methyl)acetamide] | 101 to 1000 nM
6 | O=C(COc1ccc(Cl)cc1)NCC1CCN(CCCOc2ccc(Cl)cc2Cl)C1 (centres unmarked) [Example 66, 2-(4-chlorophenoxy)-N-((1-(3-(2,4-dichlorophenoxy)propyl)pyrrolidin-3-yl)methyl)acetamide] | 101 to 1000 nM
7 | O=C(COc1ccc(Cl)cc1)NC1CCN(C(=O)COc2ccc(Cl)cc2)C1 (centres unmarked) [Example 7, 2-(4-chlorophenoxy)-N-(1-(2-(4-chlorophenoxy)acetyl)pyrrolidin-3-yl)acetamide] | 1000 to 10000 nM
8 | O=C(COc1ccc(Cl)cc1)N1CC2CN(C(=O)COc3ccc(Cl)cc3)CC2C1 (centres unmarked) [Example 6, 1,1′-(tetrahydropyrrolo[3,4-c]pyrrole-2,5(1H,3H)-diyl)bis(2-(4-chlorophenoxy)ethanone)] | 1000 to 10000 nM
9 | O=C(COc1ccc(Cl)cc1)N1CCC2(CCN(C(=O)COc3ccc(Cl)cc3)C2)C1 [Example 26, 1,1′-(2,7-diazaspiro[4.4]nonane-2,7-diyl)bis(2-(4-chlorophenoxy)ethanone)] | 1000 to 10000 nM
10 | O=C(COc1ccc(Cl)cc1)NCC1CCN(CCCOc2ccc(F)cc2)C1 (centres unmarked) [Example 49, 2-(4-chlorophenoxy)-N-((1-(3-(4-fluorophenoxy)propyl)pyrrolidin-3-yl)methyl)acetamide] | 101 to 1000 nM
11 | O=C(COc1ccc(Cl)cc1)NCC1CCN(C(=O)C2Cc3cc(Cl)ccc3O2)C1 (centres unmarked) [Example 9, N-((1-(5-chloro-2,3-dihydrobenzofuran-2-carbonyl)pyrrolidin-3-yl)methyl)-2-(4-chlorophenoxy)acetamide] | 101 to 1000 nM
12 | O=C(COc1ccc(Cl)cc1)NOC1CCN(C(=O)C2CC2c2ccc(Cl)cc2)C1 (centres unmarked) [Example 34, 2-(4-chlorophenoxy)-N-((1-(2-(4-chlorophenyl)cyclopropane-1-carbonyl)pyrrolidin-3-yl)oxy)acetamide] | 101 to 1000 nM
13 | O=C(NCC1CCN(C(=O)COc2ccc(Cl)cc2)C1)C1CCc2cc(Cl)ccc2O1 (centres unmarked) [Example 22, 6-chloro-N-((1-(2-(4-chlorophenoxy)acetyl)pyrrolidin-3-yl)methyl)chroman-2-carboxamide] | < 100 nM
14 | O=C(COc1ccc(Cl)cc1)NCC1CCN(C(=O)COc2cncc(Cl)c2)C1 (centres unmarked) [Example 10, 2-(4-chlorophenoxy)-N-((1-(2-((5-chloropyridin-3-yl)oxy)acetyl)pyrrolidin-3-yl)methyl)acetamide] | 1000 to 10000 nM
15 | O=C(COc1ccc(Cl)cc1)NCC1CCN(CCCOc2ccc(C(F)(F)F)cc2)C1 (centres unmarked) [Example 63, 2-(4-chlorophenoxy)-N-((1-(3-(4-(trifluoromethyl)phenoxy)propyl)pyrrolidin-3-yl)methyl)acetamide] | 101 to 1000 nM
16 | O=C(COc1ccc(Cl)cc1)NCC1CCN(C(=O)OCCc2ccc(Cl)cc2)C1 (centres unmarked) [Example 15, 4-chlorophenethyl 3-((2-(4-chlorophenoxy)acetamido)methyl)pyrrolidine-1-carboxylate] | < 100 nM

Other lines, results leading:

Row | IC50 | SMILES
17 | 101 to 1000 nM | O=C(COc1ccc(Cl)cc1)N[C@H]1[C@@H]2CN(C(=O)COc3ccc(Cl)cc3)C[C@@H]21 [Example 31, 2-(4-chlorophenoxy)-N-((1R,5S,6s)-3-(2-(4-chlorophenoxy)acetyl)-3-azabicyclo[3.1.0]hexan-6-yl)acetamide]
18 | < 100 nM | O=C(COc1ccc(Cl)cc1)NCC1CN(CCCOc2ccc(Cl)cc2)CC1O (centres unmarked) [Example 80, 2-(4-chlorophenoxy)-N-((1-(3-(4-chlorophenoxy)propyl)-4-hydroxypyrrolidin-3-yl)methyl)acetamide]
19 | 101 to 1000 nM | O=C(COc1ccc(Cl)cc1)N[C@H]1[C@@H]2CN(CCCOc3ccc(Cl)cn3)C[C@@H]21 [Example 53, 2-(4-chlorophenoxy)-N-((1R,5S,6s)-3-(3-((5-chloropyridin-2-yl)oxy)propyl)-3-azabicyclo[3.1.0]hexan-6-yl)acetamide]
20 | 101 to 1000 nM | O=C(COc1ccc(Cl)cn1)NCC1CCN(CCCOc2ccc(Cl)cc2)C1 (centres unmarked) [Example 56, N-((1-(3-(4-chlorophenoxy)propyl)pyrrolidin-3-yl)methyl)-2-((5-chloropyridin-2-yl)oxy)acetamide]
21 | 101 to 1000 nM | O=C(COc1ccc(Cl)cc1)N[C@H]1[C@@H]2CN(CCCOc3ccc(Cl)nc3)C[C@@H]21 [Example 65, 2-(4-chlorophenoxy)-N-((1R,5S,6s)-3-(3-((6-chloropyridin-3-yl)oxy)propyl)-3-azabicyclo[3.1.0]hexan-6-yl)acetamide]
22 | < 100 nM and 69.5 nM | O=C(COc1ccc(Cl)cc1)N[C@H]1[C@@H]2CN(C(=O)C3CC3c3ccc(Cl)cc3)C[C@@H]21 (stereo partly drawn) [Example 37, 2-(4-chlorophenoxy)-N-((1R,5S,6s)-3-(2-(4-chlorophenyl)cyclopropane-1-carbonyl)-3-azabicyclo[3.1.0]hexan-6-yl)acetamide]
23 | < 100 nM | O=C(COc1ccc(Cl)c(Cl)c1)NCC1CCN(CCCOc2ccc(Cl)cc2)C1 (centres unmarked) [Example 44, N-((1-(3-(4-chlorophenoxy)propyl)pyrrolidin-3-yl)methyl)-2-(3,4-dichlorophenoxy)acetamide]
24 | 1000 to 10000 nM | O=C(COc1ccc(Cl)cc1)NCC1CCN(CCOc2ccc(Cl)nc2)C1 (centres unmarked) [Example 13, 2-(4-chlorophenoxy)-N-((1-(2-((6-chloropyridin-3-yl)oxy)ethyl)pyrrolidin-3-yl)methyl)acetamide]
25 | 101 to 1000 nM | O=C(COc1ccc(Cl)cc1)NCC1CCN(CCCOc2cccc(Cl)c2)C1 (centres unmarked) [Example 50, 2-(4-chlorophenoxy)-N-((1-(3-(3-chlorophenoxy)propyl)pyrrolidin-3-yl)methyl)acetamide]
26 | < 100 nM | O=C(COc1ccc(Cl)cc1)NCC1CCN(CCCOc2ccc(Cl)c(Cl)c2)C1 (centres unmarked) [Example 61, 2-(4-chlorophenoxy)-N-((1-(3-(3,4-dichlorophenoxy)propyl)pyrrolidin-3-yl)methyl)acetamide]
27 | 1000 to 10000 nM | O=C(COc1ccc(Cl)nc1)NCC1CCN(C(=O)COc2ccc(Cl)cc2)C1 (centres unmarked) [Example 19, N-((1-(2-(4-chlorophenoxy)acetyl)pyrrolidin-3-yl)methyl)-2-((6-chloropyridin-3-yl)oxy)acetamide]
28 | 101 to 1000 nM | CC1C[C@H](CNC(=O)COc2ccc(Cl)cc2)CN1CCCOc1ccc(Cl)cc1 (stereo partly drawn) [Example 58, 2-(4-chlorophenoxy)-N-(((3R)-1-(3-(4-chlorophenoxy)propyl)-5-methylpyrrolidin-3-yl)methyl)acetamide]
29 | 101 to 1000 nM and 127 nM | O=C(COc1ccc(Cl)cc1)NCC1CCN(CCCOc2ccc(Cl)c(F)c2)C1 (centres unmarked) [Example 64, N-((1-(3-(4-chloro-3-fluorophenoxy)propyl)pyrrolidin-3-yl)methyl)-2-(4-chlorophenoxy)acetamide]

Same assay, conditions: read-out: average ATF4 pathway inhibitory activity (IC50)

Row | SMILES | IC50 [nM]
30 | O=C(COc1ccc(Cl)cc1)NC[C@H]1CCN(C(=O)COc2ccc(Cl)cc2)C1 [Example 30] | 101 to 1000
31 | O=C(COc1ccc(Cl)cc1)NC[C@@H]1CCN(C(=O)COc2ccc(Cl)cc2)C1 [Example 29, (S)-2-(4-chlorophenoxy)-N-((1-(2-(4-chlorophenoxy)acetyl)pyrrolidin-3-yl)methyl)acetamide] | 101 to 1000
32 | O=C(COc1ccc(Cl)cc1)NCC1CCN(C(=O)COc2ccc(Cl)cc2)C1 (centres unmarked) [Example 1, 2-(4-chlorophenoxy)-N-((1-(2-(4-chlorophenoxy)acetyl)pyrolidin-3-yl)methyl)acetamide] | 101 to 1000
